Reference: patent US7781565B2 (priority 2006, dated 2010)
Entries after “also recorded” stand apart in the source; their conditions may differ.

Test system: NCI-60 cell lines
Type: cell-based, human

Row | Substance | Cell Line with which the peptide (and its tripeptide motif) is associated | Cell Line (NCI-60 cell line the peptide is associated with) | Cell Line the peptide is associated with (peptide recovered from phage library selection on this NCI-60 cell line) | Cell Line (NCI-60 cell line the peptide and its motif are associated with)
1 | WGSSTVR | H322-Lung |  |  | 
2 | FVDIAGS | H23-Lung |  |  | 
3 | TQYYGSS |  | SNB-19 CNS; also recorded: SF-539 CNS |  | 
4 | EQLSGVR | CCRF-CEM Leukemia |  |  | 
5 | PRAGGRW | EKVX-Lung |  |  | 
6 | EAVSGRR |  |  | HS 578 T Breast | 
7 | GGLSECV | H226-Lung |  |  | 
8 | TAAAVLL |  |  |  | OVCAR-5 Ovarian
9 | TSGRLWV |  |  |  | M14 Melanoma
10 | SRVSNPS |  |  |  | SK-MEL-2 Melanoma
11 | LNAGGSG |  |  |  | DU-145 Prostate
12 | AVLVAGG | CCRF-CEM Leukemia |  |  | 
13 | LAGMRGS |  |  |  | UACC62 Melanoma
14 | GSITGGS |  |  |  | IGROV1 Ovarian
15 | LGSSRVL | Hop-92-Lung |  |  | 
16 | AGGRLGL |  | SF-268 CNS |  | 
17 | RGGLPRG |  | HCT-15 Colon |  | 
18 | RSTLGPS |  | HT-29 Colon |  | 
19 | AGGPTKY | SR Leukemia |  |  | 
20 | ASLVARN |  |  |  | SK-OV-3-3 Ovarian
21 | ERGSPSR | H460-Lung |  |  | 
22 | GGLSNVV |  | SW620-Colon |  | 
23 | GRLVWGL |  | HCT-116 Colon |  | 

Row | Substance | Cell Line with which the peptide (and its tripeptide motif) is associated | Cell Line (NCI-60 cell line the peptide is associated with) | Cell Line the peptide is associated with (peptide recovered from phage library selection on this NCI-60 cell line) | Cell Line (NCI-60 cell line the peptide and its motif are associated with)
24 | VPPSGGR |  |  | RXF393 Renal | 
25 | DPRGLRV | HL-60-Leukemia |  |  | 
26 | AAVFVRS | K-562-Leukemia |  |  | 
27 | DGGSLVV |  | LOX-IMVI Melanoma |  | 
28 | AGGSLGS | H23-Lung |  |  | 
29 | ATGSGSV |  |  |  | PC3 Prostate
30 | AATRAGS |  |  |  | UACC 257 Melanoma
31 | GLLSAGI |  | SF-268 CNS |  | 
32 | AGGWWVG |  | HCT-15 Colon |  | 
33 | AARGLEA |  | COLO-205-Colon |  | 
34 | RGSVGPS |  | SW620-Colon |  | 
35 | LSRGSVA |  |  |  | M14 Melanoma
36 | GAGLGVS |  |  |  | IGROV1 Ovarian
37 | GTLGVLS |  |  |  | UACC62 Melanoma
38 | GLVSTLI |  |  | BT-549 Breast | 
39 | ARGGESA |  |  |  | SK-OV-3-3 Ovarian
40 | PRGGRVA | Hop-92-Lung |  |  | 
41 | VAELLSM |  |  |  | OVCAR-5 Ovarian
42 | LLRSVGY |  |  |  | DU-145 Prostate
43 | RSLGSVG |  |  |  | DU-145 Prostate
44 | GGGSGGG |  |  |  | OVCAR-4 Ovarian
45 | GPSVLDI |  |  |  | OVCAR-8 Ovarian
46 | CAGRARR |  | SNB-75 CNS |  | 

Row | Substance | Cell Line with which the peptide (and its tripeptide motif) is associated | Cell Line (NCI-60 cell line the peptide is associated with) | Cell Line the peptide is associated with (peptide recovered from phage library selection on this NCI-60 cell line) | Cell Line (NCI-60 cell line the peptide and its motif are associated with)
47 | LVSYSAV |  |  | RXF393 Renal | 
48 | GGRPTVT |  |  | HS 578 T Breast | 
49 | IAGLAVV |  | SNB-75 CNS |  | 
50 | ARGTMTG |  |  | ACHN Renal | 
51 | YAASLMG |  | SNB-75 CNS |  | 
52 | FAASGVL |  |  |  | UACC 257 Melanoma
53 | LLRRAVF | Hop-62-Lung |  |  | 
54 | SGPGRLP |  |  |  | M14 Melanoma
55 | EHYRLRS |  | HT-29 Colon |  | 
56 | SVHLVSG |  |  | HS 578 T Breast | 
57 | YNRSAGL | CCRF-CEM Leukemia |  |  | 
58 | IDLGRVN |  |  |  | SK-MEL-5 Melanoma
59 | DAVRGPS |  |  |  | IGROV1 Ovarian
60 | GRVTGGR |  | HCT-15 Colon |  | 
61 | WQVSGVR |  | KM-12C Colon |  | 
62 | RYSMASL |  |  |  | SK-MEL-5 Melanoma
63 | LAGGVPG | CCRF-CEM Leukemia |  |  | 
64 | ARGIVRV |  | SW620-Colon |  | 
65 | RLRVSVR |  |  | CAIK-1 Renal | 
66 | EWHAASG |  |  |  | SK-MEL-2 Melanoma
67 | SVTGRVS |  |  |  | 786-0 Renal
68 | GLMRLSH |  |  |  | UACC62 Melanoma
69 | TTGSVIV | H23-Lung |  |  | 

Row | Substance | Cell Line with which the peptide (and its tripeptide motif) is associated | Cell Line (NCI-60 cell line the peptide is associated with) | Cell Line the peptide is associated with (peptide recovered from phage library selection on this NCI-60 cell line) | Cell Line (NCI-60 cell line the peptide and its motif are associated with)
70 | FTRGAAS |  |  |  | SK-MEL-2 Melanoma
71 | ILSDLVS |  |  | SN12C Renal | 
72 | GAGVEYF |  |  | RXF393 Renal | 
73 | ARVSGRV | H23-Lung |  |  | 
74 | GVWLRGS |  |  | RXF393 Renal | 
75 | DVRGRVW | H460-Lung |  |  | 
76 | LIGRASM |  |  |  | SK-OV-3-3 Ovarian
77 | IGVRGFF | Molt-4-Leukemia |  |  | 
78 | LQGAGIH |  |  |  | A498 Renal
79 | LYGVRYG | RPMI-8226-Leukemia |  |  | 
80 | NSVRGSR |  |  |  | SK-OV-3-3 Ovarian
81 | RVARGDR |  | KM-12C Colon |  | 
82 | AGSIALR | HL-60-Leukemia |  |  | 
83 | TFRGAGV |  |  | MDA-MB-231 Breast | 
84 | SGSRVSL | HL-60-Leukemia |  |  | 
85 | VMGAGVQ |  |  | ACHN Renal | 
86 | PPGGLKW |  | SW620-Colon |  | 
87 | GAGSFSS |  |  |  | SK-MEL-2 Melanoma
88 | GVLGCDG |  |  |  | PC3 Prostate
89 | WLLRGFG |  |  |  | A498 Renal
90 | GLRGVVK |  | HCT-116 Colon |  | 
91 | GAGRTVM | SR Leukemia |  |  | 
92 | DWGRSSF | A549-Lung |  |  | 

Row | Substance | Cell Line with which the peptide (and its tripeptide motif) is associated | Cell Line (NCI-60 cell line the peptide is associated with) | Cell Line the peptide is associated with (peptide recovered from phage library selection on this NCI-60 cell line) | Cell Line (NCI-60 cell line the peptide and its motif are associated with)
93 | LRGSVGR |  |  |  | SK-MEL-28 Melanoma
94 | GAGRGDR |  | SF-295 CNS |  | 
95 | RGSAQNF | RPMI-8226-Leukemia |  |  | 
96 | RRGSSRN | SR Leukemia |  |  | 
97 | RQTTGAV | K-562-Leukemia |  |  | 
98 | QVAGRER | CCRF-CEM Leukemia |  |  | 
99 | SVGAVGG | A549-Lung |  |  | 
100 | RAHGLVC |  |  | RXF393 Renal | 
101 | RLRAASY | RPMI-8226-Leukemia |  |  | 
102 | IFGAGLR |  | LOX-IMVI Melanoma |  | 
103 | EVASGLV |  |  |  | SK-MEL-2 Melanoma
104 | GTFGVLG | Hop-62-Lung |  |  | 
105 | DWRRRAV |  | HCT-15 Colon |  | 
106 | PAASRLL | RPMI-8226-Leukemia |  |  | 
107 | TEGTRGV |  |  | RXF393 Renal | 
108 | AIRAGSD | K-562-Leukemia |  |  | 
109 | PWYDGSV |  |  |  | OVCAR-3 Ovarian
110 | SAAGLAR |  |  |  | SK-OV-3-3 Ovarian
111 | VLLSAGL |  |  | RXF393 Renal | 
112 | GGSSLDA |  | HCT-116 Colon |  | 
113 | SGVRLTG |  | HT-29 Colon |  | 
114 | REGGSDT |  |  | NCI/ADR-RES Breast | 
115 | TRGSGAG |  |  | HS 578 T Breast | 

Row | Substance | Cell Line with which the peptide (and its tripeptide motif) is associated | Cell Line (NCI-60 cell line the peptide is associated with) | Cell Line the peptide is associated with (peptide recovered from phage library selection on this NCI-60 cell line) | Cell Line (NCI-60 cell line the peptide and its motif are associated with)
116 | IAAVWRS |  | HCT-116 Colon |  | 
117 | RVGRGVL |  | SF-268 CNS |  | 
118 | AVGVSAA |  |  | MDA-MB-231 Breast | 
119 | FAWGGRG | K-562-Leukemia |  |  | 
120 | GGSVEGQ |  |  | ACHN Renal | 
121 | LFRWGGR |  |  |  | SK-MEL-28 Melanoma
122 | RAAVSAI | Molt-4-Leukemia |  |  | 
123 | LRASLLW |  | HCC-2998-Colon |  | 
124 | GLVSSLP |  | HCT-15 Colon |  | 
125 | SNARGPR | K-562-Leukemia |  |  | 
126 | FAQRRVS |  |  | SN12C Renal | 
127 | LRYNLRS | RPMI-8226-Leukemia |  |  | 
128 | NMGRGSL |  |  | ACHN Renal | 
129 | FFPAGGP | EKVX-Lung |  |  | 
130 | CTAGSVS |  |  |  | IGROV1 Ovarian
131 | LSSGLVS | H460-Lung |  |  | 
132 | GLRGSVW |  | COLO-205-Colon |  | 
133 | RGRLEVP | Molt-4-Leukemia |  |  | 
134 | GRGVGTD |  | HT-29 Colon |  | 
135 | FLRSLSL |  |  |  | SK-MEL-5 Melanoma
